Reference: patent US8017612B2, “Piperazine compound and use thereof as a HCV polymerase inhibitor” (priority 2006, dated 2011)

Legend:
[1] = molecular target: T1, HCV polymerase (NS5B) type 1b (Hepatitis C virus genotype 1b, UniProt P26663); test: Assay of enzyme (HCV polymerase) inhibitory activity, type 1b enzyme; format: biochemical, HCV BK strain (type 1b); conditions: HCV polymerase inhibitory activity (IC50), 1b, type 1b enzyme 0.5 μg/ml, 25° C., 60 min
T1 construct: a region encoding NS5B (J Virol 1991 March, 65(3), 1105-13, 544 amino acids after deletion of 47 amino acids on the C-terminal); 6xHis (C); made in house; host or cells: Escherichia coli
Summary of the method: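 NS5B from HCV BK strain (type 1b), C-terminal 47 aa deleted, C-terminal His6-tagged, E. coli-expressed, 0.5 μg/ml, with ~450 nt substrate RNA carrying the 3′ UTR (polyU, 3′X) at 5 μg/ml. Incubation 60 min at 25 °C with 50 μM ATP/GTP/CTP, 2 μM UTP plus [3H]UTP, pH 7.5 Tris.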

[2] = molecular target: T2, HCV polymerase (NS5B) type 1a (Hepatitis C virus genotype 1a, UniProt P26664); test: Assay of enzyme (HCV polymerase) inhibitory activity, type 1a enzyme; format: biochemical, HCV type 1a (cloned from the blood of patients); conditions: HCV polymerase inhibitory activity (IC50), 1a, type 1a enzyme 1.5 μg/ml, 25° C., 60 min
T2 construct: made in house; host or cells: Escherichia coli (by the 'similar method' of the 1b enzyme)
Summary of the method: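 Patient-derived type 1a NS5B (C-terminal 47-aa deletion, His-tagged, E. coli-expressed) at 1.5 μg/ml was reacted with 5 μg/ml 3′UTR-containing substrate RNA, 50 μM ATP/GTP/CTP, 2 μM UTP plus [3H]UTP, pH 7.5, 25° C for 60 min. TCA-precipitated RNA radioactivity was counted; IC50 from ± compound.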

Row | Structure (SMILES) | IC50 [1] | IC50 [2]
1 | CCCc1ccc(S(=O)(=O)N2CCN(c3ncc(C(=O)O)s3)C[C@@H]2C(=O)NCc2ccc(C(C)C)cc2)cc1 [Example 329, 2-[(R)-3-(4-isopropyl-benzylcarbamoyl)-4-(4-propyl-benzenesulfonyl)-piperazin-1-yl]-thiazole-5-carboxylic acid] | < 100 nM | < 100 nM
2 | CCCc1ccc(S(=O)(=O)N2CCN(c3nc(C)c(C(=O)OC(C)(C)C)s3)C[C@@H]2C(=O)NCc2ccc(C(C)C)cc2C)cc1 [Example 330, 2-[(R)-3-(4-isopropyl-2-methyl-benzylcarbamoyl)-4-(4-propyl-benzenesulfonyl)-piperazin-1-yl]-4-methyl-thiazole-5-carboxylic acid tert-butyl ester] | 100 to 1000 nM | > 1000 nM
3 | CCCc1ccc(S(=O)(=O)N2CCN(c3nc(C)c(C(=O)O)s3)C[C@@H]2C(=O)NCc2ccc(C(C)C)cc2C)cc1 [Example 331, 2-[(R)-3-(4-isopropyl-2-methyl-benzylcarbamoyl)-4-(4-propyl-benzenesulfonyl)-piperazin-1-yl]-4-methyl-thiazole-5-carboxylic acid] | < 100 nM | < 100 nM
4 | CC(C)c1ccc(CNC(=O)[C@H]2CN(C(=O)Nc3nncs3)CCN2S(=O)(=O)c2ccc(C(F)(F)F)cc2)cc1 [Example 332, (R)-4-(4-trifluoromethyl-benzenesulfonyl)-piperazine-1,3-dicarboxylic acid 3-(4-isopropyl-benzylamide) 1-[1,3,4]thiadiazol-2-ylamide] | < 100 nM | 100 to 1000 nM
5 | CCCc1ccc(S(=O)(=O)N2CCN(c3nc(C)c(C(N)=O)s3)C[C@@H]2C(=O)NCc2ccc(C(C)C)cc2)cc1 [Example 333, (R)-4-(5-carbamoyl-4-methyl-thiazol-2-yl)-1-(4-propyl-benzenesulfonyl)-piperazine-2-carboxylic acid 4-isopropyl-benzylamide] | < 100 nM | < 100 nM
6 | CCOC(=O)c1nnc(NC(=O)N2CCN(S(=O)(=O)c3ccc(C(F)(F)F)cc3)[C@@H](C(=O)NCc3ccc(C(C)C)cc3)C2)o1 [Example 334, 5-{[(R)-3-(4-isopropyl-benzylcarbamoyl)-4-(4-trifluoromethyl-benzenesulfonyl)-piperazine-1-carbonyl]-amino}-[1,3,4]oxadiazole-2-carboxylic acid ethyl ester] | > 1000 nM | > 1000 nM
7 | Cc1cc(C(C)C)ccc1CNC(=O)[C@H]1CN(c2nc(C)c(C(=O)O)s2)CCN1S(=O)(=O)c1ccc(C(F)(F)F)cc1 [Example 335, 2-[(R)-3-(4-isopropyl-2-methyl-benzylcarbamoyl)-4-(4-trifluoromethyl-benzenesulfonyl)-piperazin-1-yl]-4-methyl-thiazole-5-carboxylic acid] | < 100 nM | < 100 nM
8 | Cc1nc(N2CCN(S(=O)(=O)c3ccc(C(F)(F)F)cc3)[C@@H](C(=O)NCc3ccc(C(C)C)cc3)C2)ncc1C(=O)OCc1ccccc1 [Example 336, 2-[(R)-3-(4-isopropyl-benzylcarbamoyl)-4-(4-trifluoromethyl-benzenesulfonyl)-piperazin-1-yl]-4-methyl-pyrimidine-5-carboxylic acid benzyl ester] | > 1000 nM | > 1000 nM
9 | COC(=O)c1cnc(N2CCN(S(=O)(=O)c3ccc(C(F)(F)F)cc3)[C@@H](C(=O)NCc3ccc(C(C)C)cc3)C2)nc1C [Example 337, 2-[(R)-3-(4-isopropyl-benzylcarbamoyl)-4-(4-trifluoromethyl-benzenesulfonyl)-piperazin-1-yl]-4-methyl-pyrimidine-5-carboxylic acid methyl ester] | 100 to 1000 nM | > 1000 nM
10 | Cc1nc(N2CCN(S(=O)(=O)c3ccc(C(F)(F)F)cc3)[C@@H](C(=O)NCc3ccc(C(C)C)cc3)C2)ncc1C(=O)O [Example 338, 2-[(R)-3-(4-isopropyl-benzylcarbamoyl)-4-(4-trifluoromethyl-benzenesulfonyl)-piperazin-1-yl]-4-methyl-pyrimidine-5-carboxylic acid] | 100 to 1000 nM | > 1000 nM
11 | CCCc1ccc(CNC(=O)[C@H]2CN(c3nc(C)c(C(=O)O)s3)CCN2S(=O)(=O)c2ccc(C(F)(F)F)cc2)cc1 [Example 339, 4-methyl-2-[(R)-3-(4-propyl-benzylcarbamoyl)-4-(4-trifluoromethyl-benzenesulfonyl)-piperazin-1-yl]-thiazole-5-carboxylic acid] | < 100 nM | < 100 nM
12 | Cc1nc(N2CCN(S(=O)(=O)c3ccc(OC(F)(F)F)cc3)[C@@H](C(=O)NCc3ccc(C(C)C)cc3)C2)sc1C(N)=O [Example 340, (R)-4-(5-carbamoyl-4-methyl-thiazol-2-yl)-1-(4-trifluoromethoxy-benzenesulfonyl)-piperazine-2-carboxylic acid 4-isopropyl-benzylamide] | < 100 nM | < 100 nM
13 | CCCc1ccc(CNC(=O)[C@H]2CN(c3nc(C)c(C(=O)O)s3)CCN2S(=O)(=O)c2ccc(OC(F)(F)F)cc2)c(C)c1 [Example 341, 4-methyl-2-[(R)-3-(2-methyl-4-propyl-benzylcarbamoyl)-4-(4-trifluoromethoxy-benzenesulfonyl)-piperazin-1-yl]-thiazole-5-carboxylic acid] | < 100 nM | < 100 nM
14 | CC(C)c1ccc(CNC(=O)[C@H]2CN(c3ncc(C(=O)O)cn3)CCN2S(=O)(=O)c2ccc(C(F)(F)F)cc2)cc1 [Example 342, 2-[(R)-3-(4-isopropyl-benzylcarbamoyl)-4-(4-trifluoromethyl-benzenesulfonyl)-piperazin-1-yl]-pyrimidine-5-carboxylic acid] | 100 to 1000 nM | > 1000 nM
15 | Cc1nc(N2CCN(S(=O)(=O)c3ccc(C(F)(F)F)cc3)[C@@H](C(=O)NCc3ccc(N(C)C)cc3)C2)sc1C(=O)O [Example 343, 2-[(R)-3-(4-dimethylamino-benzylcarbamoyl)-4-(4-trifluoromethyl-benzenesulfonyl)-piperazin-1-yl]-4-methyl-thiazole-5-carboxylic acid] | < 100 nM | < 100 nM
16 | Cc1nc(N2CCN(S(=O)(=O)c3ccc(C(C)C)cc3)[C@@H](C(=O)NCc3ccc(C(C)C)cc3)C2)sc1C(=O)O [Example 344, 2-[(R)-4-(4-isopropyl-benzenesulfonyl)-3-(4-isopropyl-benzylcarbamoyl)-piperazin-1-yl]-4-methyl-thiazole-5-carboxylic acid] | < 100 nM | < 100 nM
17 | CC(C)c1ccc(CNC(=O)[C@H]2CN(C3CCNC3=O)CCN2S(=O)(=O)c2ccc(C(F)(F)F)cc2)cc1 (stereo partly drawn) [Example 345, (R)-4-(2-oxo-pyrrolidin-3-yl)-1-(4-trifluoromethyl-benzenesulfonyl)-piperazine-2-carboxylic acid 4-isopropyl-benzylamide] | 100 to 1000 nM | > 1000 nM
18 | CN1CCN(CC(=O)N2CCN(S(=O)(=O)c3ccc(I)cc3)[C@@H](C(=O)NCc3ccc(N(C)C)cc3)C2)CC1 [Example 346, 1-(4-iodo-benzenesulfonyl)-4-[2-(4-methyl-piperazin-1-yl)-acetyl]-piperazine-2-carboxylic acid 4-dimethylamino-benzylamide] | > 1000 nM | > 1000 nM
19 | CC(C)c1ccc(CNC(=O)[C@H]2CN(C(=O)Nc3ccncc3)CCN2S(=O)(=O)c2ccc(C(F)(F)F)cc2)cc1 [Example 347, (R)-4-(4-trifluoromethyl-benzenesulfonyl)-piperazine-1,3-dicarboxylic acid 3-(4-isopropyl-benzylamide) 1-pyridin-4-ylamide] | 100 to 1000 nM | 100 to 1000 nM
